Consider ten molecules from ChEMBL document CHEMBL1133064, “1-[2-[(Heteroaryloxy)heteroaryl]carbamoyl]indolines: novel and selective 5-HT2C receptor inverse agonists with potential as antidepressant/anxiolytic agents” (Bioorg Med Chem Lett, 2000).

Test [1] concerns the target 5-hydroxytryptamine receptor 2A (Homo sapiens, UniProt P28223). The experiment in a line: Binding affinity towards human cloned 5-hydroxytryptamine 2A receptor of HEK293 cells by displacement of [3H]ketanserin. The test is classed as cell-based. For orientation: Displacement assays read how much labelled ligand stays bound in the presence of the test substance.
The target of test [2] is T1, 5-hydroxytryptamine receptor 2C (Homo sapiens, UniProt P28335).
T1 sequence (P28335 whole entry): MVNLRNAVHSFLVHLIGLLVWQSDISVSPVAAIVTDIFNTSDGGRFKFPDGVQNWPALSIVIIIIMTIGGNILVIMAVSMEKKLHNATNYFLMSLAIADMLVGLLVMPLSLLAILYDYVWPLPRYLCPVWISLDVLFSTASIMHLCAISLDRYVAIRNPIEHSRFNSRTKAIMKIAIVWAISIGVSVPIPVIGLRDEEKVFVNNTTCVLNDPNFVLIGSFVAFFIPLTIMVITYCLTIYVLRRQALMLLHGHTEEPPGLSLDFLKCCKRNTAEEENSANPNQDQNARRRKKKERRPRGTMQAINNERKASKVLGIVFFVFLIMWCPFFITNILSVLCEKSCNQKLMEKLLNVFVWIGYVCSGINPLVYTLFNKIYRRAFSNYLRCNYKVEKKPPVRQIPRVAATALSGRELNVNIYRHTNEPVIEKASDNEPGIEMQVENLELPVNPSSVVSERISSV
The experiment in a line: Binding affinity towards human cloned 5-hydroxytryptamine 2C receptor of HEK293 cells by displacement of [3H]mesulergine. The class given is cell-based.

The target in test [3] is 5-hydroxytryptamine receptor 2B (Homo sapiens, UniProt P41595). The experiment in a line: Binding affinity towards human cloned 5-HT2B receptor of HEK293 cells by displacement of [3H]5-HT. The test is classed as cell-based.
Sequence of 5-hydroxytryptamine receptor 2B (P41595 whole entry): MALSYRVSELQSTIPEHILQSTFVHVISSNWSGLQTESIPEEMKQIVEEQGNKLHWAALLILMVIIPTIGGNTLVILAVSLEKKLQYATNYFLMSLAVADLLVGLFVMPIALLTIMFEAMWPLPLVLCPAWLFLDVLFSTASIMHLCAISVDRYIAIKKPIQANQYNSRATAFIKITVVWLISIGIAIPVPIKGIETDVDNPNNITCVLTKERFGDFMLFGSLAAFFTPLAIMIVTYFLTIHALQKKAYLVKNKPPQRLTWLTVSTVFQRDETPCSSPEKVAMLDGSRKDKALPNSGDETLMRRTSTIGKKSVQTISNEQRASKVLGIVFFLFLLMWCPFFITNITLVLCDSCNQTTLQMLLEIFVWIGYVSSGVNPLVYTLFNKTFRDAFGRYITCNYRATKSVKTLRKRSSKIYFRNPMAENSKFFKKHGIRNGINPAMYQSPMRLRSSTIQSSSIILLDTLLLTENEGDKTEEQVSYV
In test [4] the test system is Rattus norvegicus. The experiment in a line: Dose required to reverse mCPP induced hypolocomotion by 50% at 7 mg/kg, ip administration 30 min pretest. The test is classed as functional. As to conditions: 0.5 h, route intraperitoneal, read-out: ID50 (the source's name).
Test [5] concerns the target Serotonin 2 receptors; 5-HT2a & 5-HT2c (Homo sapiens) (UniProt P28223+P28335). The experiment in a line: Selectivity expressed as ratio of serotonin 5-HT2C receptor over serotonin 5-HT2A receptor. The class given is protein assay.
The target in test [6] is Serotonin receptor (2b and 2c) (Homo sapiens) (UniProt P41595+P28335). The experiment in a line: Selectivity expressed as ratio of serotonin 5-HT2C receptor over serotonin 5-HT2B receptor. The test is classed as protein assay.

Structures are written as SMILES.

Sequence of 5-hydroxytryptamine receptor 2A (P28223 whole entry): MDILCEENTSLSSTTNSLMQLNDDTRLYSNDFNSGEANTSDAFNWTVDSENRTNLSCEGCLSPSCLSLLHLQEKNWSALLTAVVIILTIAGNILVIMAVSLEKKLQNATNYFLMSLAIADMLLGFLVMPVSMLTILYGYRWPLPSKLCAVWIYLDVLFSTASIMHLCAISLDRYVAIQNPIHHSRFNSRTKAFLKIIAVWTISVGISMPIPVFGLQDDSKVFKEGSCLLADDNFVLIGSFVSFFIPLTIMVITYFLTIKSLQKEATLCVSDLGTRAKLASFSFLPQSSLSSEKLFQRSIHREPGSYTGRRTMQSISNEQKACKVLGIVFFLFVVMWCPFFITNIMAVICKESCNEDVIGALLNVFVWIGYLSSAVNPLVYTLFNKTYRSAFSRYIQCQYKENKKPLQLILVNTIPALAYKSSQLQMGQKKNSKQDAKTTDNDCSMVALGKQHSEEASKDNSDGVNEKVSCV
Sequence of Serotonin 2 receptors; 5-HT2a & 5-HT2c (Homo sapiens) (P28223 whole entry, looked up, one chain of several): as the sequence (P28223 whole entry) above

In general, Ki refers to a dissociation constant, usually derived from enzyme kinetics or from competition with a known ligand. Consider `CCc1ncccc1Oc1ccc(NC(=O)N2CCc3cc(C)c(Cl)cc32)cn1`, for which the Ki was 200 nM in test [1], 2 nM in test [2] and 50.1 nM in test [3]. In addition, the ED50 in test [4] is 1.8 mg/kg. Also, the figures for the Selectivity in test [5] and in test [6] were 100 and 25, respectively.

Turning to `Cc1cc2c(cc1Cl)N(C(=O)Nc1cnc(Oc3cccnc3C)c(C)c1)CC2`, the Ki is 126 nM in test [1], 1.58 nM in test [2] and 31.6 nM in test [3]. The ED50 in test [4] is 0.8 mg/kg. Further, the Selectivity is 80 in test [5] and 20 in test [6].

`Cc1cc2c(cc1Cl)N(C(=O)Nc1cnc(Oc3cccnc3C)c(Cl)c1)CC2`: the results for the Ki in test [1], in test [2] and in test [3] were 126 nM, 0.631 nM and 20 nM, respectively. For the same molecule, the ED50 in test [4] was over 5 mg/kg. Moreover, the results for the Selectivity in test [5] and in test [6] were 200 and 30, respectively.

Consider `Cc1cc2c(cc1Cl)N(C(=O)Nc1ccc(Oc3cccnc3C)nn1)CC2`, for which the results for the Ki in test [1], in test [2] and in test [3] were 1580 nM, 2 nM and 158 nM, respectively. Also, the ED50 in test [4] came to 1.6 mg/kg. Besides, the Selectivity in test [5] worked out at 800; in test [6] it was 80.

With `Cc1cc2c(cc1C(F)(F)F)N(C(=O)Nc1cnc(Oc3cccnc3C)cn1)CC2`, the Ki was 631 nM in test [1], 2 nM in test [2] and 79.4 nM in test [3]. In addition, the ED50 in test [4] was 3.6 mg/kg. For the same molecule, the Selectivity amounted to 320 in test [5] and 40 in test [6].

On to `Cc1cc2c(cc1C(F)(F)F)N(C(=O)Nc1ccc(Oc3cccnc3C)nn1)CC2`, for which the figures for the Ki in test [1], in test [2] and in test [3] were 398 nM, 3.16 nM and 126 nM, respectively. In addition, the ED50 in test [4] turned out to be 1.2 mg/kg. Moreover, the results for the Selectivity in test [5] and in test [6] were 130 and 40, respectively.

On to `Cc1ncccc1Oc1ccc(NC(=O)N2CCc3cc(C(F)(F)F)ccc32)cn1`, for which the values for the Ki in test [1], in test [2] and in test [3] were 2510 nM, 3.98 nM and 631 nM, respectively. Further, the ED50 in test [4] worked out at 2.1 mg/kg. For the same molecule, the Selectivity in test [5] was found to be 630; in test [6] it was 160.

With `Cc1cc2c(cc1Cl)N(C(=O)Nc1cnc(Oc3cccnc3C)nc1)CC2`, the Ki in test [1] is over 631 nM; in test [2] it was 3.16 nM; in test [3] it was 63.1 nM. The ED50 in test [4] was 3.7 mg/kg. The Selectivity in test [5] is over 200; in test [6] it was 20.

For the molecule `Cc1ncccc1Oc1ccc(NC(=O)N2CCc3cc(Br)c(C(F)(F)F)cc32)cn1`, the Ki was 126 nM in test [1], 1.26 nM in test [2] and 100 nM in test [3]. Also, the ED50 in test [4] worked out at 2 mg/kg. In addition, the Selectivity in test [5] worked out at 100; in test [6] it was 80.

For the molecule `Cc1cc2c(cc1C(F)(F)F)N(C(=O)Nc1cnc(Oc3cccnc3C)c(Cl)c1)CC2`, the Ki in test [1] was 251 nM; in test [2], 1.58 nM; in test [3], 39.8 nM. Also, in test [4], the ED50 was over 5 mg/kg. For the same molecule, the Selectivity in test [5] turned out to be 160; in test [6] it was 25.
